Results published in patent US11306092B2, “Amino indole compounds useful as TLR inhibitors” (BRISTOL-MYERS SQUIBB COMPANY, priority 2017, dated 2022).

Experiments:
Type in all cases: cell-based
[1] = target: T1, human TLR8 (Homo sapiens, UniProt Q9NR97); experiment: TLR8 inhibition reporter assay (HEK-Blue SEAP reporter); settings: HEK-Blue cells overexpressing human TLR8; R848 15.9 μM; 22 hour incubation
T1 construct: host or cells: HEK-Blue cells
T1 sequence (Q9NR97 27-1041): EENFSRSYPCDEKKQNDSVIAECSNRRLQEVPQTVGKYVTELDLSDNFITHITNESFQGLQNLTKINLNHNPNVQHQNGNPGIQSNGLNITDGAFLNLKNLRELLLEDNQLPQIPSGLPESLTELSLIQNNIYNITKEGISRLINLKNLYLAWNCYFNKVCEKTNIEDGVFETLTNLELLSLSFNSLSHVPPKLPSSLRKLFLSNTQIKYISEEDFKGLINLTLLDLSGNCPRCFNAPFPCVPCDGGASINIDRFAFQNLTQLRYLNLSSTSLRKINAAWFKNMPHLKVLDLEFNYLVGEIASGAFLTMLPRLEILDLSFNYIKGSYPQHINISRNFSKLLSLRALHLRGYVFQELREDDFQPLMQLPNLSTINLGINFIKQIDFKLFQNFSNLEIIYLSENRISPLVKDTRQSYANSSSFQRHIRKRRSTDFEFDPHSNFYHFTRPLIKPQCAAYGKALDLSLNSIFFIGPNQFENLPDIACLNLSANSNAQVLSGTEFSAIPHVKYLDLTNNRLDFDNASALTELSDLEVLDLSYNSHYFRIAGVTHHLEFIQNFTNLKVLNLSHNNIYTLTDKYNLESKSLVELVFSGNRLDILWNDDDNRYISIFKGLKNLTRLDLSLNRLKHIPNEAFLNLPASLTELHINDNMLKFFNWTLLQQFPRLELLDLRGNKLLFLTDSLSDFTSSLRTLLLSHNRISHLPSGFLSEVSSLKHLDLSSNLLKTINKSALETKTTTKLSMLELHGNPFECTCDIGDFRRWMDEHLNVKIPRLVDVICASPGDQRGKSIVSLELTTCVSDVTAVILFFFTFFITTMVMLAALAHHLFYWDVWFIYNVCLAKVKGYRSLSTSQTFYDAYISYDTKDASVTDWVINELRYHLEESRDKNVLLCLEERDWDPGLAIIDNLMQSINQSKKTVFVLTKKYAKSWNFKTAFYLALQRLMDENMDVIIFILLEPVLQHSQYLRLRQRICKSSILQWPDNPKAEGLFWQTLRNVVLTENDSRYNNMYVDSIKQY
Protocol: TLR7/8/9 Inhibition Reporter Assays
HEK-Blue™-cells (Invivogen) overexpressing human TLR7, TLR8 or TLR9 receptors were used for screening inhibitors of these receptors using an inducible SEAP (secreted embryonic alkaline phosphatase) reporter gene under the control of the IFN-β minimal promoter fused to five NF-κB and AP-1-binding sites. Briefly, cells are seeded into Greiner 384 well plates (15000 cells per well for TLR7, 20,000 for TLR8 and 25,000 for TLR9) and then treated with test compounds in DMSO to yield a final dose response concentration range of 0.05 nM-50 μM. After a 30 minute compound pre-treatment at room temperature, the cells are then stimulated with a TLR7 ligand (gardiquimod at a final concentration of 7.5 μM), TLR8 ligand (R848 at a final concentration of 15.9 μM) or TLR9 ligand (ODN2006 at a final concentration of 5 nM) to activate NF-κB and AP-1 which induce the production of SEAP. After a 22 hour incubation at 37° C., 5% CO2, SEAP levels are determined with the addition of HEK-Blue™ Detection reagent (Invivogen), a cell culture medium that allows for detection of SEAP, according to manufacturer's specifications. The percent inhibition is determined as the % reduction in the HEK-Blue signal present in wells treated with agonist plus DMSO alone compared to wells treated with a known inhibitor.

[2] = target: T2, human TLR7 (Homo sapiens, UniProt Q9NYK1); experiment: TLR7 inhibition reporter assay (HEK-Blue SEAP reporter); settings: HEK-Blue cells overexpressing human TLR7; gardiquimod 7.5 μM; 22 hour incubation
T2 construct: host or cells: HEK-Blue cells
T2 sequence (Q9NYK1 27-1049): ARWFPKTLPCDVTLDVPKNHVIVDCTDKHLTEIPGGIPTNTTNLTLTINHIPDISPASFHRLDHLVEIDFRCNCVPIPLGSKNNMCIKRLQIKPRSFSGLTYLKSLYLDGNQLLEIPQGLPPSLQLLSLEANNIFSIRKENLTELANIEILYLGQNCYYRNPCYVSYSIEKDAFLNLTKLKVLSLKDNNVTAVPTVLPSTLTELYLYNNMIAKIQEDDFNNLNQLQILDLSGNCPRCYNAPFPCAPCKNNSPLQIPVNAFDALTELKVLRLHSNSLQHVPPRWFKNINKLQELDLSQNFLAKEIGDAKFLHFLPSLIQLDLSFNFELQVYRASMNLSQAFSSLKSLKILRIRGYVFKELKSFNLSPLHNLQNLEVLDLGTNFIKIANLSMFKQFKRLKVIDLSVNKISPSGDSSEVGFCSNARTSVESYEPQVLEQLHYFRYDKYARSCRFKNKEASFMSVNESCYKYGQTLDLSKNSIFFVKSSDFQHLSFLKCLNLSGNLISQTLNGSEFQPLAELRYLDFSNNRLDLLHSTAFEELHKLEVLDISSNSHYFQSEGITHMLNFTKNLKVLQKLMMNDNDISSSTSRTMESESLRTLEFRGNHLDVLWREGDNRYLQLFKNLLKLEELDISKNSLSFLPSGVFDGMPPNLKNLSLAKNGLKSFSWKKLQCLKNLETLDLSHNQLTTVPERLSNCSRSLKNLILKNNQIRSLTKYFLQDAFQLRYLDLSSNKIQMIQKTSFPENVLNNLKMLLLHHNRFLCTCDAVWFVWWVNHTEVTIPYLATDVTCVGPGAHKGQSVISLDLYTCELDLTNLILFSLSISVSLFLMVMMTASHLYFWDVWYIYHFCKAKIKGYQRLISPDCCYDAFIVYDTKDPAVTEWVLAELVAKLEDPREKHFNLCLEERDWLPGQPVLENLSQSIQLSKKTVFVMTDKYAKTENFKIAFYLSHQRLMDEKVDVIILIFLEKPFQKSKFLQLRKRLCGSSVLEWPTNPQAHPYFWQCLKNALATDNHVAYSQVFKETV
Summary of the method: (§1)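 Screening used HEK-Blue cells overexpressing one human TLR (7, 8 or 9) and an IFN-β minimal promoter–NF-κB/AP-1 SEAP construct. Stimulation lasted 22 h at 37 °C with receptor-specific agonist: gardiquimod, R848 or ODN2006 at 7.5 μM, 15.9 μM and 5 nM.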

[3] = target: T3, human TLR9 (Homo sapiens, UniProt Q9NR96); experiment: TLR9 inhibition reporter assay (HEK-Blue SEAP reporter); settings: HEK-Blue cells overexpressing human TLR9; ODN2006 5 nM; 22 hour incubation
T3 construct: host or cells: HEK-Blue cells
T3 sequence (Q9NR96 26-1032): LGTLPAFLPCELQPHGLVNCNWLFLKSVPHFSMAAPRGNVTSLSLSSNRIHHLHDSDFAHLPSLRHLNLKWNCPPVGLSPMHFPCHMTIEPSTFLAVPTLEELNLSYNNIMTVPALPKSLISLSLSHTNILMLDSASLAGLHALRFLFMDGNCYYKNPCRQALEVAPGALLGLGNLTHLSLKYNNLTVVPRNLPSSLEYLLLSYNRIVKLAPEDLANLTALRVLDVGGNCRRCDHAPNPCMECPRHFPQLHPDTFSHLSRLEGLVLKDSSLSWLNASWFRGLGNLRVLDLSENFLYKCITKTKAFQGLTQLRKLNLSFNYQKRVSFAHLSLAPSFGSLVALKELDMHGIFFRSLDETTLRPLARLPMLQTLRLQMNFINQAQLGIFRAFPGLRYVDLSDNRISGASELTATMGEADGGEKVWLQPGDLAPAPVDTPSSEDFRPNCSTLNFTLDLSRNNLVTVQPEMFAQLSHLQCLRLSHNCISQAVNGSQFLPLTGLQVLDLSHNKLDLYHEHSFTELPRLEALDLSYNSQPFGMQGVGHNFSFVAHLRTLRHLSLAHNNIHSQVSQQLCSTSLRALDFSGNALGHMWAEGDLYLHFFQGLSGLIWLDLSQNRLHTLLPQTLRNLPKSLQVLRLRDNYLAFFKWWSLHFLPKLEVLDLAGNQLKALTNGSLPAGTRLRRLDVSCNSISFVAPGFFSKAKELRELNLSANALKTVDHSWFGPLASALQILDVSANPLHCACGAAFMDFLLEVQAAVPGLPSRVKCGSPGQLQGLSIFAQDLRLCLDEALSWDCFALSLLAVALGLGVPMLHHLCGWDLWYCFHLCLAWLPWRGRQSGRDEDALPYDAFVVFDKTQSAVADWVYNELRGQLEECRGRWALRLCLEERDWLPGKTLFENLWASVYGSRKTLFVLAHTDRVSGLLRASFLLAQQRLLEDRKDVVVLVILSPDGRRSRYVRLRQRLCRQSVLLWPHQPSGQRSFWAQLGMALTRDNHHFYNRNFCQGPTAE
Summary of the method: as §1

| IC50 [1] [nM] | IC50 [2] [nM] | IC50 [3] [nM] | SMILES |
| --- | --- | --- | --- |
| 75 | 128 | 1390 | COc1ccc(-c2[nH]c3ccc(NC(=O)[C@@H]4CCCC[C@@H]4N)cc3c2C(C)C)cc1OC [Example 21, (1R,2S)-2-amino-N-(2-(3,4-dimethoxyphenyl)-3-isopropyl-1H-indol-5-yl)cyclohexane-1-carboxamide] |
| 213 | 670 | 19300 | COc1ccc(-c2[nH]c3ccc(NC(=O)[C@H](N)CCC(N)=O)cc3c2C(C)C)cc1OC [Example 22, (R)-2-amino-N1-(2-(3,4-dimethoxyphenyl)-3-isopropyl-1H-indol-5-yl)pentanediamide] |
| 433 | 969 | > 50000 | COc1ccc(-c2[nH]c3ccc(NC(=O)[C@@H](N)CCCCN)cc3c2C(C)C)cc1OC [Example 23, (S)-2,6-diamino-N-(2-(3,4-dimethoxyphenyl)-3-isopropyl-1H-indol-5-yl)hexanamide] |
| 216 | 1080 | > 50000 | COc1ccc(-c2[nH]c3ccc(NC(=O)[C@@H](N)CCC(=O)O)cc3c2C(C)C)cc1OC [Example 24, (S)-4-amino-5-((2-(3,4-dimethoxyphenyl)-3-isopropyl-1H-indol-5-yl)amino)-5-oxopentanoic acid] |
| 101 | 621 | > 50000 | COc1ccc(-c2[nH]c3ccc(NC(=O)[C@@H](N)c4ccccc4)cc3c2C(C)C)cc1OC [Example 25, (S)-2-amino-N-(2-(3,4-dimethoxyphenyl)-3-isopropyl-1H-indol-5-yl)-2-phenylacetamide] |
| 194 | 1180 | 11300 | COc1ccc(-c2[nH]c3ccc(NC(=O)[C@@H](N)C4CCCCC4)cc3c2C(C)C)cc1OC [Example 26, (S)-2-amino-2-cyclohexyl-N-(2-(3,4-dimethoxyphenyl)-3-isopropyl-1H-indol-5-yl)acetamide] |
| 14 | 180 | > 50000 | CC(C)c1c(-c2ccnc3[nH]ncc23)[nH]c2ccc(N3CCNC3=O)cc12 [Example 27, 1-(3-isopropyl-2-(1H-pyrazolo[3,4-b]pyridin-4-yl)-1H-indol-5-yl)imidazolidin-2-one] |
| 27 | 760 | 3750 | COc1ccc(-c2[nH]c3ccc(N4CC(N5CCCNCC5)C4)cc3c2C(C)C)cc1OC [Example 29, 5-(3-(1,4-diazepan-1-yl)azetidin-1-yl)-2-(3,4-dimethoxyphenyl)-3-isopropyl-1H-indole] |
| 261 | 129 | 608 | COc1ccc(-c2[nH]c3ccc(NC4CCC(N(C)CCN(C)C)CC4)cc3c2C(C)C)cc1OC (stereo not drawn) [Example 35, N1-(2-(3,4-dimethoxyphenyl)-3-isopropyl-1H-indol-5-yl)-N4-(2-(dimethylamino)ethyl)-N4-methylcyclohexane-1,4-diamine] |
| 276 | 222 | 624 | COc1ccc(-c2[nH]c3ccc(NC4CCC(NCCN5CCOCC5)CC4)cc3c2C(C)C)cc1OC (stereo not drawn) [Example 47, N1-(2-(3,4-dimethoxyphenyl)-3-isopropyl-1H-indol-5-yl)-N4-(2-morpholinoethyl)cyclohexane-1,4-diamine] |
| 106 | 196 | 218 | COc1ccc(-c2[nH]c3ccc(NC4CCC(N5CCN(c6ccncc6)CC5)CC4)cc3c2C(C)C)cc1OC (stereo not drawn) [Example 59, 2-(3,4-dimethoxyphenyl)-3-isopropyl-N-(4-(4-(pyridin-4-yl)piperazin-1-yl)cyclohexyl)-1H-indol-5-amine] |
| 112 | 153 | 253 | COc1ccc(-c2[nH]c3ccc(NC4CCC(N5CCN(c6ccncc6)CC5)CC4)cc3c2C(C)C)cc1OC (stereo not drawn) [Example 60, 2-(3,4-dimethoxyphenyl)-3-isopropyl-N-(4-(4-(pyridin-4-yl)piperazin-1-yl)cyclohexyl)-1H-indol-5-amine] |
